US7862798B2, “Vitamin-targeted imaging agents” (Endocyte, Inc., priority 2002, dated 2011)
Each block holds one compound with its values, some of them ahead of it.

Legend:
FR-positive M109 tumors = assay: Tissue distribution, subcutaneous M109 tumors (Example 11)
Procedure: The ability of ^99mTc-EC20 to target tumors in vivo was assessed using a FR-positive M109 model.
Four to five week-old mice (Balb/c strain) were purchased from Harlan Sprague Dawley, Inc. (Indianapolis, Ind.) and were maintained on a folate-free diet for a total of three weeks prior to the experiment. Syngeneic, FR-positive M109 tumor cells (1×10^6 per animal) were inoculated in the subcutis of the right axilla two weeks prior to the experiment.
Animals received an approximate 40 μmol/kg i.v. dose of test article in 100 μL volume via a lateral tail vein during brief diethyl ether anesthesia. Four hours post-injection, animals were sacrificed by CO2 asphyxiation, and dissected. Selected tissues were removed, weighed, and counted to determine ^99mTc distribution. CPM values were decay-corrected, and results were tabulated as % injected dose per gram of wet weight tissue.

FR-positive KB tumors = assay: Tissue distribution, KB tumor model (Example 16, Table 5); type: in vivo, nude mice; conditions: for Blood / Heart / Kidney (one) / Liver & Gall Bladder / Lungs / Muscle / Spleen / Stomach, Intestines & Contents / Tumor: 99mTc-labelled conjugate, 4 hours post i.v.
Procedure: The protocols used in this example are similar to those described in Example 11. The ability of ^99mTc-EC11 (peptide-A1), ^99mTc-EC13 (peptide-A3), and ^99mTc-EC14 (peptide-A2) to target tumors in vivo was assessed using the FR-positive KB tumor model.
FR-positive KB tumor cells (0.25×10^6 per animal) were inoculated subcutaneously in the intracapsular region. Fourteen days after tumor cell inoculation, the animals (n=4/group) were injected intravenously with ^99mTc-EC11, ^99mTc-EC13, or ^99mTc-EC14 at the doses (about 12 μg/kg) of the conjugates shown in Table 5 below. Stocks of ^99mTc-EC11, ^99mTc-EC13, and ^99mTc-EC14 solutions were prepared on the day of use as described above. About a 20-fold excess of free folate (about 200 μg/kg) was co-administered to control animals (n=4/group). […] Selected tissues were removed, weighed, and counted in an automatic gamma counter to determine ^99mTc distribution. Uptake of the radiopharmaceutical in terms of percentage injected dose of wet weight tissue (% ID/g) was calculated by reference to standards prepared from dilutions of the injected preparation.

[1] = 4 hr post intravenous injection
[2] = folic acid dihydrate co-injected (about 200 μg/kg)
[3] = folic acid dihydrate co-injected

Tumor/Blood (FR-positive M109 tumors; [1]): 2.00 ± 0.50
Compound: benzoyl-D-Glu-n-Glu-βDpr-Asp-Cys [^99mTc-EC28, reference compound]
accumulation in the kidneys and tumor (FR-positive M109 tumors; 4 hr post i.v.): failed to appreciably accumulate in the kidneys and tumor
Blood (FR-positive M109 tumors; [1]): 0.06 ± 0.04 % Injected Dose per Gram Tissue
Heart (FR-positive M109 tumors; [1]): 0.03 ± 0.01 % Injected Dose per Gram Tissue
Intestine (FR-positive M109 tumors; [1]): 0.47 ± 0.19 % Injected Dose per Gram Tissue
Kidney (FR-positive M109 tumors; [1]): 0.62 ± 0.14 % Injected Dose per Gram Tissue
Liver (FR-positive M109 tumors; [1]): 0.50 ± 0.26 % Injected Dose per Gram Tissue
Lung (FR-positive M109 tumors; [1]): 0.05 ± 0.01 % Injected Dose per Gram Tissue
Muscle (FR-positive M109 tumors; [1]): 0.02 ± 0.01 % Injected Dose per Gram Tissue
Spleen (FR-positive M109 tumors; [1]): 0.60 ± 0.38 % Injected Dose per Gram Tissue
Stomach (FR-positive M109 tumors; [1]): 0.21 ± 0.19 % Injected Dose per Gram Tissue
Tumor (FR-positive M109 tumors; 4 hr post intravenous injection, M109 tumor): 0.11 ± 0.06 % Injected Dose per Gram Tissue

Liver & Gall Bladder (FR-positive KB tumors; [2]): 1.6 ± 0.1 Percentage of Injected 99mTc D
Stomach, Intestines & Contents (FR-positive KB tumors; [2]): 1.1 ± 0.3 Percentage of Injected 99mTc D
Heart (FR-positive KB tumors; no folic acid): 2.5 ± 0.3 Percentage of Injected 99mTc D
Liver & Gall Bladder (FR-positive KB tumors; no folic acid): 5.4 ± 1.4 Percentage of Injected 99mTc D
Lungs (FR-positive KB tumors; no folic acid): 1.2 ± 0.2 Percentage of Injected 99mTc D
Muscle (FR-positive KB tumors; no folic acid): 1.8 ± 0.1 Percentage of Injected 99mTc D
Stomach, Intestines & Contents (FR-positive KB tumors; no folic acid): 1.4 ± 0.1 Percentage of Injected 99mTc D
Tumor/Blood (FR-positive KB tumors; [3]): 5.9 ± 0.9
Tumor/Kidney (FR-positive KB tumors; [3]): 0.027 ± 0.005
Tumor/Liver (FR-positive KB tumors; [3]): 0.94 ± 0.09
Tumor/Muscle (FR-positive KB tumors; [3]): 3.9 ± 0.08
Tumor/Blood (FR-positive KB tumors; no folic acid): 13.7 ± 2.1
Tumor/Kidney (FR-positive KB tumors; no folic acid): 0.043 ± 0.005
Tumor/Liver (FR-positive KB tumors; no folic acid): 0.57 ± 0.14
Tumor/Muscle (FR-positive KB tumors; no folic acid): 1.6 ± 0.3
Compound: Nc1nc2ncc(CNc3ccc(C(=O)N[C@@H](CCC(=O)N[C@@H](CCC(=O)NC[C@H](N)C(=O)N[C@@H](CC(=O)O)C(=O)N[C@@H](CS)C(=O)O)C(=O)O)C(=O)O)cc3)nc2c(=O)[nH]1 [EC11]
Blood (FR-positive KB tumors; [2]): 0.25 ± 0.01 Percentage of Injected 99mTc D
Heart (FR-positive KB tumors; [2]): 0.36 ± 0.03 Percentage of Injected 99mTc D
Kidney (one) (FR-positive KB tumors; [2]): 55.5 ± 2.3 Percentage of Injected 99mTc D
Lungs (FR-positive KB tumors; [2]): 0.35 ± 0.03 Percentage of Injected 99mTc D
Muscle (FR-positive KB tumors; [2]): 0.38 ± 0.06 Percentage of Injected 99mTc D
Spleen (FR-positive KB tumors; [2]): 0.23 ± 0.01 Percentage of Injected 99mTc D
Tumor (FR-positive KB tumors; [2]): 1.47 ± 0.24 Percentage of Injected 99mTc D
Blood (FR-positive KB tumors; no folic acid): 0.21 ± 0.01 Percentage of Injected 99mTc D
Kidney (one) (FR-positive KB tumors; no folic acid): 67.8 ± 6.9 Percentage of Injected 99mTc D
Spleen (FR-positive KB tumors; no folic acid): 0.38 ± 0.03 Percentage of Injected 99mTc D
Tumor (FR-positive KB tumors; no folic acid, KB tumor): 2.95 ± 0.57 Percentage of Injected 99mTc D

accumulation in FR-positive KB tumors and kidneys on co-administration of free folate (FR-positive KB tumors; about 20-fold excess of free folate): blocked
Compound: Nc1nc2ncc(CNc3ccc(C(=O)N[C@@H](CCC(=O)N[C@@H](CCC(=O)NC[C@@H]4[NH2+][99Tc-]56(=[O])[S]C[C@@H](C(=O)O)[N]5C(=O)[C@H](CC(=O)O)[N]6C4=O)C(=O)O)C(=O)O)cc3)nc2c(=O)[nH]1 [^99mTc-EC11]
